BindingDB's records for doi:10.7270/Q23B5XSC (Nmmlsc, 2012)

Molecular target: C-C chemokine receptor type 5 (Homo sapiens, UniProt P51681)
Sequence (P51681 whole entry): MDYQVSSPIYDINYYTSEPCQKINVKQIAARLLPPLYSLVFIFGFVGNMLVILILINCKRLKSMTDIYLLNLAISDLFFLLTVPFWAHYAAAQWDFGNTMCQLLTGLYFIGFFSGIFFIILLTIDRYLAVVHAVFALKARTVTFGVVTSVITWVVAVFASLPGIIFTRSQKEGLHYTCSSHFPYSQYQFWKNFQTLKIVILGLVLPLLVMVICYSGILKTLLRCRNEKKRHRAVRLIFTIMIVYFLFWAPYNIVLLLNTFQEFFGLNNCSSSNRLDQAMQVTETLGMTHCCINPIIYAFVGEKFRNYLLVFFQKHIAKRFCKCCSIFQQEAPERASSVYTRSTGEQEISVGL

Row | EC50 | SMILES
1 | 7.46 nM | CN(CC(=O)N1CCN(c2ccccn2)CC1)S(=O)(=O)c1ccc(Cl)cc1
2 | 19.6 nM | CC(=O)Nc1ccc(S(=O)(=O)NCCc2csc(-c3cccnc3)n2)cc1
3 | 123 nM | CCOC(=O)c1ccc(NC(=O)Cn2nnc(-c3ccccc3)n2)cc1 [SMR000021419]
4 | 188 nM | CCOC(=O)c1ccc(NC(=O)COc2ccc(S(=O)(=O)N3CCCC3)cc2)cc1 [SMR000124597]
